For data set [1], the system named is blood glucose level. The experiment in a line: Blood glucose after intranasal insulin (Example 4). The data set is classed as in vivo, New Zealand White rabbits. The note with it: rabbits. How it is done: 0.33 mg zinc-free (monomeric) human insulin in 50 μl 12.5 mM phosphate buffer (pH 7.4) containing 5% glycofurol 75 was applied into one nostril of 5 sitting New Zealand White rabbits, weighing about 3 kg. Blood samples of 50 μl were withdrawn from the marginal ear vein after 0, 15, 30, 60 and 120 minutes, and blood glucose level was determined.

The conditions of data set [2]: nasal gel, rats; cited from earlier work.
For data set [3] the following is noted: intranasal, adults; cited from earlier work.
A further data set relates to children. As to conditions: intranasal, 45 children; cited from earlier work.
Data set [4] can be described thus: Plasma clonazepam after intranasal administration in vehicle B (Example 2). The data set is classed as in vivo, New Zealand White rabbits. The procedure:
50 μl of his preparation was administered into each nasal cavity of male New Zealand White rabbits, held in a supine position during and 1 minute after the application. An Eppendorph pipette was used for the application.

Another data set has as its system rabbits. The data set can be described thus: Pharmacodynamic response, enhanced by GF (Example 3). The note with it: intranasal 0.25 mg clonazepam in 100 μl.
Data set [5] is described as follows: Volume of aqueous solution needed to dissolve clinically relevant dose. The format is physicochemical.
Data set [6] concerns blood glucose level. The experiment in a line: Blood glucose after intranasal glucagon in hypoglycaemic rabbits (Example 5). The data set is classed as in vivo, New Zealand White rabbits. How it is done: 4 mg human glucagon in 100 μl phosphate buffer (pH 4) containing 5% GF was applied into both nostrils (50 μl into each) of 5 sitting hypoglycaemic New Zealand White rabbits, weighing about 3 kg. The formulation was prepared by dissolving glucagon in a 7 mM phosphate buffer (pH 2.5), adjusting the pH to 4.0 with 0.1N sodium hydroxide and finally 5% glycofurolum 75 was added. The rabbits were made hypoglycaemic by subcutaneous injection of […] insulin one hour prior to the experiment. Blood samples were continuously withdrawn from the marginal ear vein for blood glucose determination.

The next data set has as its system rabbit nasal cavity. The experiment in a line: Acute toxicological study, rabbit nasal cavity 10 minutes after intranasal application. As to conditions: for Microscopic Observations (Left Cavity): Table 8, individual rabbit. The data set is classed as in vivo. The procedure: This study was conducted in order to observe acute changes in the rabbit nasal cavity after a single dose of vehicle in each nasal cavity.
16 rabbits were randomized into 4 groups of 4 rabbits each. 3 groups received a single intranasal application of one of the test vehicles, 50 μl into each nasal cavity. Each rabbit received only one test compound. One group served as a control receiving the same volume of isotonic sodium chloride saline. 10 minutes after application the rabbits were sacrificed and bled. The right nasal cavity was then opened and evaluated macroscopically. The evaluator was blind as to the dosing scheme. The left nasal cavity was dissected and fixed in neutral buffered formalin for histological evaluation.

Entries after “also recorded” stand apart in the source; their conditions may differ. Some results are limits rather than exact numbers.

“insulin: zinc-free (monomeric) human insulin in phosphate buffer (pH 7.4) containing 5% glycofurol 75”: the “pronounced biological response (blood glucose), time after application” value with blood glucose level [1] was 15-30 minutes.
In the case of `COC(=O)C1=C(C)NC(C)=C(C(=O)OC)C1c1ccccc1[N+](=O)[O-]` [nifedipine], in data set [2], the “plasma peak concentration compared with intravenous administration” value is given as at most 10%.
For the molecule `CN1C(=O)CN=C(c2ccccc2)c2cc(Cl)ccc21` [diazepam], the “peak concentration with reference to i.v. administration” value in [3] was “about 27%”.
Regarding `O=C1Nc2ccc(Cl)cc2C(c2ccccc2Cl)=NC1O` (stereo not shown) [lorazepam], in data set [3], the “time to peak concentration” value was 2.3 h.
With `Cc1ncc2n1-c1ccc(Cl)cc1C(c1ccccc1F)=NC2` [midazolam], the “adverse reaction (in words)” value in the data set on children was “coughing and sneezing with expulsion of part of the dose”.
Turning to `O=C1CN=C(c2ccccc2Cl)c2cc([N+](=O)[O-])ccc2N1` [clonazepam], the “plasma concentration versus i.v. injection (in words)” value in data set [4] (0.5 mg, at about 2 minutes) is “about the same or even higher, at about 2 minutes, than for an i.v. injection”. The “plasma concentration after 2 1/2 minutes, % of i.v. (CpL(21/2 min))” value in data set [4] (FIG. 1) is on record as “about 100%”. In addition, the Tmax in [4] (rabbit, plasma, 0.5 mg, FIG. 1, read-out: peak clonazepam plasma concentration (tmax)) fell in the range of 2 to 3 min. In the data set with rabbits, the “time to pharmacodynamic response” value is given as “less than 2 minutes”. In data set [5], the “volume of aqueous solution to dissolve clinically relevant dose” value is above 10 mL.
“glucagon: human glucagon in phosphate buffer (pH 4) containing 5% GF”: in the data set on blood glucose level [6], the “pronounced biological response (blood glucose), time after application” value is recorded as 15-30 minutes.
`CC(O)CO` (stereo not shown) [Propylene glycol (PG), propylene glycol]: the “Microscopic Observations (Left Cavity)” value is “Edema and congestion” in the data set with rabbit nasal cavity (Level 1); “Congestion” in the data set on rabbit nasal cavity (Level 2); “Lymphoid aggregates; also recorded: Dilatation of venules” in the data set with rabbit nasal cavity (Level 3); “Area of chronic inflammation” in the data set with rabbit nasal cavity (Level 4). In the data set with rabbit nasal cavity (Table 9 summary, 10 minutes after application, per animal), the “Microscopic Results (Left side)” value is “Focal haemorrhage”.

The record behind these values is patent US5693608A, “Method of administering a biologically active substance” (Bechgaard International Research and Development A/S, priority 1990, dated 1997).
